Source: paper PMC12477080, “Polychlorinated biphenyls (PCBs) interact with drug metabolism in vivo” (Archives of Toxicology, 2025)

How the values were obtained:
[1] = target: T1, recombinant CYP1A2 (Homo sapiens, UniProt P05177); assay: Luciferase-based P450-Glo enzyme assay with recombinant CYP1A2; format: biochemical; conditions: PCB118 1–10 µM; Luciferin–ME substrate; significant at highest concentration (p < 0.0001)
T1 construct: purchased Promega, Madison, WI, USA
T1 sequence (P05177 1-516): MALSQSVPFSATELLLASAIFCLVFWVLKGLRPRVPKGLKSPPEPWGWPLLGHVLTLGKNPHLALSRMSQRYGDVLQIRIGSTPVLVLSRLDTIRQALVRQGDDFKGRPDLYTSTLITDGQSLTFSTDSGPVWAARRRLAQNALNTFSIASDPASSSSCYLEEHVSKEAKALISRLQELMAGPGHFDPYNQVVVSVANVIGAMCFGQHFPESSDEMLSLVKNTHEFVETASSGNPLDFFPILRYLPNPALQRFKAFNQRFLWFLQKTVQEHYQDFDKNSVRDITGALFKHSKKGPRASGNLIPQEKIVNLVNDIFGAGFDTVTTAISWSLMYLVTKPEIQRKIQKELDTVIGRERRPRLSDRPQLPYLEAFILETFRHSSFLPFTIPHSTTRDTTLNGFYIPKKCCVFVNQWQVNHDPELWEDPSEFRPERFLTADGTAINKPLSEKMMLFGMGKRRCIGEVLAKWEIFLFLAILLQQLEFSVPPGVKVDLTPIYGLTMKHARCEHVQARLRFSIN

[2] = target: T2, HEK293 cells overexpressing CYP1A2 (Homo sapiens, UniProt P05177); assay: CYP1A2 activity in transgenic HEK293 cells (phenacetin probe); format: cell-based; conditions: 0.1, 0.5, 1 µM PCB118, 30 min, then 10 µM phenacetin 1 h
T2 construct: expressed in transfected cells; host or cells: HEK293
T2 sequence (P05177 1-516): T1 sequence (P05177 1-516)

Clc1ccc(-c2cc(Cl)c(Cl)cc2Cl)cc1Cl [PCB118]
effect on CYP1A2 enzyme activity (luminescence) [1]: concentration-dependent inhibitory effect
effect on CYP1A2 activity in HEK293 cells (phenacetin probe) [2]: significantly inhibited CYP1A2 activity in a dose-dependent manner
